Test results from patent US8148398B2, “Intermediate duration neuromuscular blocking agents and antagonists thereof” (Cornell Research Foundation, Inc., priority 2006, dated 2012).

Tests used:
Type in all cases: in vivo
[1] = test system: Rhesus monkeys; test: Potency and duration of neuromuscular blockade, twitch response in anesthetized rhesus monkeys; details: for spontaneous recovery from neuromuscular blockade / duration of the neuromuscular blockade (FIG. 7): no antagonist; for effective dosage for 50% neuromuscular blockade (dose-response curve) / effective dosage for 95% neuromuscular blockade (dose-response curve): dose-response curve FIG. 3 / FIG. 10; for Potency (ED95 mg/kg) / Duration at 4X ED95 / Duration: rhesus monkeys; for Potency (ED95 mg/kg): intravenous, dose achieving 95% neuromuscular blockade; for Duration at 4X ED95: 4xED95 dosage; for Duration: from injection to 95% twitch recovery
Method: (§1) Rhesus monkeys were anesthetized with ketamine (7.5 mg/Kg) given intramuscularly or intravenously. Anesthesia was maintained with a mixture of isoflurane (1.5%), nitrous oxide (60%) and oxygen (40%). The common peroneal nerve was stimulated supramaximally with square wave pulses of 0.2 m sec duration at a rate of 0.15 Hz. Twitch contractions were recorded via the tendon of the extensor digitorum muscle.
(§2) In all animals, the trachea was intubated and ventilation was controlled at 12-15 ml/kg, 18-24 breaths per minute. A peripheral vein and artery were cannulated for drug administration and for recording of arterial pressure, respectively. In preliminary studies a neuromuscular blocking agent having one of the following structures was administered intravenously.

[2] = test system: Rhesus monkeys; test: Reversal of neuromuscular blockade by cysteine plus glutathione in rhesus monkeys (Example 3); details: for time for reversal of the neuromuscular blockade (FIG. 5, as stated in Example 3): combination of cysteine and glutathione
Method: as §1, §2
In studies designed to examine the reversal of the neuromuscular blockade caused by these agents, cysteine and/or glutathione was administered to test animals at selected dosages.
Rhesus monkeys were anesthetized and treated with a neuromuscular blocking agent as described in Example 1.

[3] = test system: Rhesus monkeys; test: Cardiovascular effects (mean arterial pressure, heart rate) of blocking agents in rhesus monkeys; details: for change in heart rate / change in mean arterial pressure: even high dosages, FIG. 8 / FIG. 9; for physiological distress to the circulation in vivo: rhesus monkeys
Method: as §1, §2
Rhesus monkeys were anesthetized and treated with a neuromuscular blocking agent as described in Example 1. FIGS. 8 and 9 provide mean values for the cardiovascular effects of administration of the AV002 and AV001 neuromuscular blocking agents, respectively as a function of dosage.

[4] = test system: adult male rhesus monkeys; test: Reversal of AV002 0.15 mg/kg block by cysteine/glutathione or neostigmine/atropine (Example 5); details: AV002 0.15 mg/kg (3XED95), spontaneous recovery
Method: Anesthesia was induced in adult male rhesus monkeys using 7.5 mg/kg ketamine. Tracheae were intubated using topical anesthetic. Anesthesia was maintained with isoflurane 1-2% and N2O/O2 (60%/40%). ECG, temperature, O2 saturation, and blood pressure were monitored and maintained within normal limits. Mechanomyogram (MMG) recordings were made of twitch responses from the extensor digitorum at 0.15 Hz. A control dose of AV002 (0.15 mg/kg; about 3 times the ED95) was given and animals were allowed to recover spontaneously. Another dose of 0.15 mg/kg of AV002 was given approximately 30 minutes after return of train of four (TOF) to greater than 100%. Reversal of the second dose of AV002 was attempted in four separate groups of animals with either:
1) cysteine 30 mg/kg and glutathione 30 mg/kg at 1 minute after injection of AV002,
2) cysteine 30 mg/kg and glutathione 30 mg/kg at the first sign of recovery of twitch,
3) neostigmine 0.05 mg/kg and atropine 0.03 mg/kg at 1 minute after injection of AV002, or
4) neostigmine 0.05 mg/kg and atropine 0.03 mg/kg at the first sign of recovery of twitch.
Comparative recovery intervals and total duration were analyzed using the student t-test.

[5] = test system: neuromuscular blockade; test: Reversibility of neuromuscular blockade by cysteine-like antagonists (general statements); details: general statement, no method given
[6] = 0.1 mg/kg blocking agent, FIG. 1 / FIG. 4

| Structure (SMILES) | spontaneous recovery from neuromuscular blockade [1, 6] | effective dosage for 50% neuromuscular blockade (dose-response curve) [1] | effective dosage for 95% neuromuscular blockade (dose-response curve) [1] | Potency (ED95 mg/kg) [1] | Duration at 4X ED95 [1] | Duration [1] | change in heart rate [3] | change in mean arterial pressure [3] | physiological distress to the circulation in vivo [3] | reversal of the blockade by cysteine-like molecules (cysteine, glutathione) [5] | also measured |
| --- | --- | --- | --- | --- | --- | --- | --- | --- | --- | --- | --- |
| COc1cc2c(cc1OC)[C@@H](Cc1cc(OC)c(OC)c(OC)c1)[N@+](C)(CCCOC(=O)/C=C/C(=O)OCCC[N@+]1(C)CCc3cc(OC)c(OC)cc3[C@H]1Cc1cc(OC)c(OC)c(OC)c1)CC2 [AV001] | about 2800 seconds | 0.027 mg/kg | 0.040 mg/kg | 0.04 mg/kg | 50 to 60 min | 30 to 40 min | little or no change | little or no change | no signs of causing physiological distress to the circulation | – | time to reversal of neuromuscular blockade counted from blocking agent administration ([2]; 0.1 mg/kg, 20 mg/kg cysteine + 10 mg/kg glutathione after two minutes): about 475 seconds; recovery from neuromuscular blockade with cysteine plus glutathione, overdose ([2]; 3.0 mg/kg blocking agent, seconds value restated in minutes): about 8.5 min. |
| COc1ccc(C[C@@H]2c3cc(OC)c(OC)cc3CC[N@@+]2(C)CCCOC(=O)/C=C/C(=O)OCCC[N@+]2(C)CCc3cc(OC)c(OC)cc3[C@H]2Cc2ccc(OC)c(OC)c2)cc1OC [AV002] | about 1600 seconds | 0.031 mg/kg | 0.045 mg/kg | 0.04 mg/kg | 30 to 35 min | 20 to 25 min | little or no change | little or no change | no signs of causing physiological distress to the circulation | – | duration of the neuromuscular blockade (FIG. 7) ([1]; 0.1 mg/kg): about 1766 seconds; spontaneous recovery from neuromuscular blockade ([1]; 0.2 mg/kg blocking agent, FIG. 6): about 1730 seconds; spontaneous recovery from neuromuscular blockade ([1]; 0.2 mg/kg blocking agent, seconds value restated in minutes): about 28.8 min.; duration of the neuromuscular blockade (FIG. 7) ([1]; 0.2 mg/kg): about 2150 seconds; potency of trans isomer (AV002) compared with cis isomer (AV003) ([1]; comparison of ED95 values): five times more potent; time for reversal of the neuromuscular blockade (FIG. 5, as stated in Example 3) ([2]; 0.1 mg/kg): about 320 seconds; recovery from neuromuscular blockade with cysteine plus glutathione ([2]; 0.2 mg/kg blocking agent, antagonists at 2 minutes, seconds value restated in minutes): about 7.5 min.; time for reversal of the neuromuscular blockade (FIG. 5, as stated in Example 3) ([2]; 0.2 mg/kg): about 670 seconds; Recovery Interval (5-95%) (minutes ± SE) [4]: 13.78 ± 1.27 min; Total Duration (inj − 95%) (minutes ± SE) [4]: 30.45 ± 2.24 min |
| COc1ccc(C[C@H]2c3cc(OC)c(OC)cc3CC[N@@+]2(C)CCCOC(=O)/C=C/C(=O)OCCC[N@+]2(C)CCc3cc(OC)c(OC)cc3[C@@H]2Cc2ccc(OC)c(OC)c2)cc1OC [AV003] | – | – | – | 0.20 mg/kg | 45 to 60 min | 25 to 40 min | – | – | – | – | – |
| COc1ccc(C[C@@H]2c3cc(OC)c(OC)cc3CC[N@+]2(C)CCC(=O)OCCCCCOC(=O)CC[N@@+]2(C)CCc3cc(OC)c(OC)cc3[C@H]2Cc2ccc(OC)c(OC)c2)cc1OC [cisatracurium] | – | – | – | – | – | – | – | – | – | no reversal effect whatsoever | – |
| COc1cc(CC2c3c(cc(OC)c(OC)c3OC)CC[N+]2(C)CCCOC(=O)CCC(=O)OCCC[N+]2(C)CCc3cc(OC)c(OC)c(OC)c3C2Cc2cc(OC)c(OC)c(OC)c2)cc(OC)c1OC (stereo not drawn) [doxacurium] | – | – | – | – | – | – | – | – | – | no reversal effect whatsoever | – |
| COc1cc2c(cc1OC)[C@@H](Cc1cc(OC)c(OC)c(OC)c1)[N+](C)(CCCOC(=O)CC/C=C/CCC(=O)OCCC[N+]1(C)CCc3cc(OC)c(OC)cc3[C@H]1Cc1cc(OC)c(OC)c(OC)c1)CC2 (stereo partly drawn) [mivacurium] | – | – | – | – | – | – | – | – | – | no reversal effect whatsoever | – |
